Source: PubChem BioAssay (NCI)
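Grown in 96-well plates, cells were treated for 48 hours with each compound at five concentrations. Insufficient inhibition: endpoint recorded as highest concentration tested. TGI: total growth inhibition.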

Experiments:
Assay in all cases: DTP human tumour cell line panel, 48 h
DU-145 prostate = tested on: DU-145 prostate
U251 CNS = tested on: U251 CNS
SK-MEL-5 melanoma = tested on: SK-MEL-5 melanoma
NCI-H522 lung = tested on: NCI-H522 lung
A549 NSCLC = tested on: A549 NSCLC
LOX IMVI melanoma = tested on: LOX IMVI melanoma
IGROV1 ovarian = tested on: IGROV1 ovarian
ACHN renal = tested on: ACHN renal
EKVX NSCLC = tested on: EKVX NSCLC
NCI-H23 lung = tested on: NCI-H23 lung
SF-539 CNS = tested on: SF-539 CNS
MDA-N = tested on: MDA-N
UACC-62 melanoma = tested on: UACC-62 melanoma
RXF 393 renal = tested on: RXF 393 renal
SW-620 colon = tested on: SW-620 colon
KM12 colon = tested on: KM12 colon
HS 578T breast = tested on: HS 578T breast
SN12C renal = tested on: SN12C renal
HCT-116 colon = tested on: HCT-116 colon
SNB-75 CNS = tested on: SNB-75 CNS
786-0 renal = tested on: 786-0 renal
HCT-15 colon = tested on: HCT-15 colon
PC-3 prostate = tested on: PC-3 prostate
SF-295 CNS = tested on: SF-295 CNS
SF-268 CNS = tested on: SF-268 CNS
SK-OV-3 ovarian = tested on: SK-OV-3 ovarian
M14 melanoma = tested on: M14 melanoma
SR leukemia = tested on: SR leukemia
A498 renal = tested on: A498 renal
HT29 colon = tested on: HT29 colon
SK-MEL-28 melanoma = tested on: SK-MEL-28 melanoma
MDA-MB-231 breast = tested on: MDA-MB-231 breast
MCF7 breast = tested on: MCF7 breast
CAKI-1 renal = tested on: CAKI-1 renal
MALME-3M melanoma = tested on: MALME-3M melanoma
MOLT-4 leukemia = tested on: MOLT-4 leukemia
UACC-257 melanoma = tested on: UACC-257 melanoma
TK-10 renal = tested on: TK-10 renal
CCRF-CEM leukemia = tested on: CCRF-CEM leukemia
OVCAR-5 ovarian = tested on: OVCAR-5 ovarian
NCI-H460 lung = tested on: NCI-H460 lung
UO-31 renal = tested on: UO-31 renal
SNB-19 CNS = tested on: SNB-19 CNS
OVCAR-3 ovarian = tested on: OVCAR-3 ovarian
MDA-MB-435 = tested on: MDA-MB-435
SK-MEL-2 melanoma = tested on: SK-MEL-2 melanoma
RPMI-8226 leukemia = tested on: RPMI-8226 leukemia
HOP-92 NSCLC = tested on: HOP-92 NSCLC
K-562 leukemia = tested on: K-562 leukemia
T-47D breast = tested on: T-47D breast
BT-549 breast = tested on: BT-549 breast
NCI/ADR-RES ovarian = tested on: NCI/ADR-RES ovarian
COLO 205 colon = tested on: COLO 205 colon
HOP-62 NSCLC = tested on: HOP-62 NSCLC
OVCAR-8 ovarian = tested on: OVCAR-8 ovarian
OVCAR-4 ovarian = tested on: OVCAR-4 ovarian

`CC(C)(C)c1ccc(O)c(CN(Cc2c(O)ccc3ccccc23)C2CCCCC2)c1` was tested, and the TGI (DU-145 prostate) was 60.9 µM, the TGI (U251 CNS) was 29.4 µM and the TGI (SK-MEL-5 melanoma) was 30.2 µM. For the same compound, the TGI (NCI-H522 lung) was 28.9 µM, the TGI (A549 NSCLC) was 48.9 µM and the TGI (LOX IMVI melanoma) was 23.9 µM. The TGI (IGROV1 ovarian) was 32.7 µM, the TGI (ACHN renal) was 33.3 µM and the TGI (EKVX NSCLC) was 30 µM. For the same compound, the TGI (NCI-H23 lung) was 35.3 µM, the TGI (SF-539 CNS) was 30.8 µM and the TGI (MDA-N) was 29.3 µM. The TGI (UACC-62 melanoma) was 30.1 µM, the TGI (RXF 393 renal) was 33.6 µM and the TGI (SW-620 colon) was 85.2 µM. It also gave a TGI (KM12 colon) of 39.6 µM, a TGI (HS 578T breast) of 84.3 µM and a TGI (SN12C renal) of 33.1 µM. For the same compound, the TGI (HCT-116 colon) was 30.9 µM, the TGI (SNB-75 CNS) was 32.3 µM and the TGI (786-0 renal) was 29.2 µM. For the same compound, the TGI (HCT-15 colon) was 31 µM, the TGI (PC-3 prostate) was 28.5 µM and the TGI (SF-295 CNS) was 38.1 µM. It also gave a TGI (SF-268 CNS) of 30.9 µM, a TGI (SK-OV-3 ovarian) of 58.6 µM and a TGI (M14 melanoma) of 25.7 µM. It also gave a TGI (SR leukemia) of 52.2 µM, a TGI (A498 renal) of 37.6 µM and a TGI (HT29 colon) of 31.6 µM. It also gave a TGI (SK-MEL-28 melanoma) of 46 µM, a TGI (MDA-MB-231 breast) of 30.6 µM and a TGI (MCF7 breast) of 31.9 µM. It also gave a TGI (CAKI-1 renal) of 32.2 µM, a TGI (MALME-3M melanoma) of 31.9 µM and a TGI (MOLT-4 leukemia) of 54.9 µM. It also gave a TGI (UACC-257 melanoma) of 29.3 µM, a TGI (TK-10 renal) of 29.2 µM and a TGI (CCRF-CEM leukemia) greater than 100 µM. It also gave a TGI (OVCAR-5 ovarian) of 32.4 µM, a TGI (NCI-H460 lung) of 30.4 µM and a TGI (UO-31 renal) of 29.2 µM. It also gave a TGI (SNB-19 CNS) of 43.9 µM, a TGI (OVCAR-3 ovarian) of 34.3 µM and a TGI (MDA-MB-435) of 52.6 µM. For the same compound, the TGI (SK-MEL-2 melanoma) was 31.3 µM, the TGI (RPMI-8226 leukemia) was greater than 100 µM and the TGI (HOP-92 NSCLC) was 30.7 µM. For the same compound, the TGI (K-562 leukemia) was 52.1 µM, the TGI (T-47D breast) was 44.3 µM and the TGI (BT-549 breast) was 34.4 µM. It also gave a TGI (NCI/ADR-RES ovarian) of 32.4 µM, a TGI (COLO 205 colon) of 29.3 µM and a TGI (HOP-62 NSCLC) of 36.9 µM. The TGI (OVCAR-8 ovarian) was 31.8 µM and the TGI (OVCAR-4 ovarian) was 58.6 µM.
